According to US12473584B2, “Method for detecting the presence, identification and quantification in a blood sample of anticoagulants which are blood coagulation enzymes inhibitors, and means for the implementation thereof” (DIAGNOSTICA STAGO, priority 2018, dated 2025):

Molecular target: T1, bovine factor Xa (Bos taurus, UniProt P00743)
T1 construct: (bovine factor Xa); purchased Stago (Diagnostica Stago) STA®—Liquid Anti-Xa commercial kit (catalogue number not given)
Experiment: competitive enzymatic assay, enzyme-substrate reaction (universal methodology, STA-Liquid Anti-Xa kit)
Assay type: biochemical
Settings: bovine factor Xa [E]≈10 nM, substrate [S]≈482 μM, 37° C.
Experimental: In accordance with this particular embodiment, the in vitro measurement for the detection, the identification, and the quantification of synthetic inhibitors of factor Xa was carried out in accordance with the following principle: • 25 μL of a plasma sample suspected of containing a heparin or an anti-Xa DOAC was diluted in 25 μL of Owren Koller buffer (TOK), then placed in a consumable; • 150 μL of “Substrate” reagent (MAPA-Gly-Arg-pNA) (reagent in the STA®—Liquid Anti-Xa commercial kit) specific for factor Xa was added to the reaction mixture; • an incubation step of 240 seconds raised the reaction mixture to 37° C.; • 150 μL of the reagent “F. Xa” (bovine factor Xa) (reagent in the STA®—Liquid Anti-Xa commercial kit) was added to the reaction mixture, thereby initiating competition between the inhibition reaction and the enzymatic reaction; • the measurement per se was then carried out over 156 seconds: factor Xa transforms the substrate into product while at the same time being inhibited by the heparin or the DOAC if they are present in the sample. […]

T1 sequence (P00743 234-492 limits assumed): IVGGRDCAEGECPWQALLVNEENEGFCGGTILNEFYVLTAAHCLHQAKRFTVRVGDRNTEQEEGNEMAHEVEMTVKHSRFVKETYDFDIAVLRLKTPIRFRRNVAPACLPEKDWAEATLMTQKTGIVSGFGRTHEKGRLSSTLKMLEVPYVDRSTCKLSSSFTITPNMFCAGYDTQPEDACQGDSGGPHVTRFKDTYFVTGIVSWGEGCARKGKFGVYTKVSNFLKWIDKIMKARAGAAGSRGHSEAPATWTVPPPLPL
T1 sequence (P00743 41-180 limits assumed): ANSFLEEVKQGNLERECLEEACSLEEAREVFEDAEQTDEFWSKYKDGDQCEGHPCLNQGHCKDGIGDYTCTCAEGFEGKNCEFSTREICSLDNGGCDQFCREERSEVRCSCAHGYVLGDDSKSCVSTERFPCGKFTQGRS

Michaelis constant KM associated with the enzyme-substrate reaction: ~500 µM
catalytic constant kcat associated with the enzyme-substrate reaction: approximately 400 s-1
Substance: MAPA-Gly-Arg-pNA
